Tests used:
[1] = test system: BALB/c mice; assay: Inhibitory effect on eosinophilic infiltration into the abdominal cavity of OVA-immunized mice; assay type: in vivo; conditions: for Ratio of Infiltrating Eosinophiles: cells collected two days after; for Inhibition: eosinophile ratio vs control
Procedure: Eight week-old male BALB/c mice were immunized with 1.6 mg of aluminium hydroxide gel (200 μl) adsorbing 100 μg of OVA by subcutaneous administration in the back. After 7 days, the mice received a booster injection of the same composition. Seven days after the booster administration, 10 μg of OVA in 200 μl of physiological saline was administered to the mice intraperitoneally. Two days after the intraperitoneal administration, abdominal cavity-infiltrating cells were collected with physiological saline. The total cell count and the eosinophile count in the collected cells were calculated by staining with Türk's solution and Hinkerman's solution, respectively. The test compound was administered orally 2 hours before the OVA intraperitoneal administration.

[2] = test system: interleukin-4 (IL-4); assay: IL-4 production from OVA-sensitized mouse spleen cells induced by antigen stimulation (ELISA); assay type: cell-based; conditions: OVA-stimulated sensitized spleen cells, 3 days culture supernatant
Procedure: (§1) 1) Preparation of Sensitized Mouse Spleen Cells
(§2) Seven week-old male BALB/c mice were immunized with 4 mg of aluminium hydroxide gel (100 μl) adsorbing 10 μg of ovalbumin (OVA) by intraperitoneal administration. After 14 days, the mice received a booster injection of the same composition. Seven days after the booster administration, the spleen was removed and suspended in RPMI-1640 medium containing inactivated bovine fetal serum (10% v/v), 2-mercaptoethanol (50 μM), penicillin G (100 U/ml) and streptomycin (100 μg/ml) to prepare a cell suspension.
(§3) 2) Cytokine Production Induced by Antigen Stimulation
(§4) To the spleen cell suspension (5×10^6 cells/200 μl/well), 1/1000 volume of dimethyl sulfoxide solution dissolving OVA (0.5 mg/ml) and a test compound at a specific concentration was added. Then, the cells were cultured at 37° C. under 5% CO2. After 3 days, cytokines in the culture supernatant were determined by ELISA. Specifically, as a Th1 type cytokine, interferon-γ, (IFN-γ) was determined using Mouse IFN-γ ELISA Kit (Amersham). As Th2 type cytokines, interleukin-4 (IL-4) and interleukin-5 (IL-5) were determined with Mouse IL-4 ELISA Kit (Amersham) and Mouse IL-5 ELISA minikit (Endogen), respectively.

[3] = test system: interleukin-5 (IL-5); assay: IL-5 production from OVA-sensitized mouse spleen cells induced by antigen stimulation (ELISA); assay type: cell-based; conditions: OVA-stimulated sensitized spleen cells, 3 days culture supernatant
Procedure: as §1, §2, §3, §4

[4] = test system: interferon-γ (IFN-γ); assay: IFN-γ production from OVA-sensitized mouse spleen cells induced by antigen stimulation (ELISA); assay type: cell-based; conditions: OVA-stimulated sensitized spleen cells, 3 days culture supernatant
Procedure: as §1, §2, §3, §4

[5] = test system: BALB/c mice; assay: Mouse FITC-induced contact dermatitis model (auricule swelling), ointment; assay type: in vivo; conditions: 10 μl on left auricule 2 hr before induction, 24 hr after induction
Procedure: As a control, Imiquimode (R-837; 4-amino-1-isobutyl-1H-imidazo[4,5-c]quinoline) disclosed in EP 145,340 A was used for comparison. Further, a steroid-type drug Rinderon™ ointment (Shionogi & Co.; 0.12% betamethasone valerate ointment) was used for reference.
The test compound was dissolved in an ointment base (PEG400:PEG4000=7:3) heated to about 80° C. to give a concentration of 1 mg/ml or 10 mg/ml, and then cooled to solid at room temperature to thereby prepare 0.1 or 1% macrogol ointment. Imiquimode (R-837), the control, was also formulated into 0.1 and 1% macrogol ointments.
Seven week-old male BALB/c mice were sensitized by applying 0.2 ml of 0.5% FITC in acetone/dibutyl phthalate (1:1) to the abdomen sheared in advance. Seven days after the sensitization, inflammation was induced by applying 10 μl of 0.5% FITC in acetone/dibutyl phthalate (1:1) to each side of the left auricule (total 20 μl). Before the induction and 24 hr after the induction, the thickness of the auricule was measured with a micrometer. The difference between the two values was taken as the swelling degree. The macrogoal ointment containing the test compound and Rinderon™ ointment (0.12% betamethasonevalerate) were applied to each side of the left auricule in an amount of 5 μl (total 10 μl) 2 hr before the induction. Mice in the placebo group were treated with the macrogol ointment base (PEG400:PEG4000=7:3).
The inflammation inhibitory effect of the ointment of the invention was calculated as an inhibition ratio relative to the swelling degree in the placebo group which was taken as 100%. For example, the inhibition ratios in the groups treated with ointments containing 0.1% and 1% of the compound of Example 59, i.e. 2-butyl-9-(p-fluorobenzyl)-8-hydroxyadenine were 67% and 33%, respectively.

[6] = 3 mg/kg orally 2 hours before OVA i.p.
[7] = 30 mg/kg orally 2 hours before OVA i.p.

| Structure (SMILES) | melting point [°C] | IL-4 ([2]; test compound 0.1 μM) [pg/mL] | IL-4 ([2]; test compound 1 μM) [pg/mL] | IL-4 ([2]; test compound 10 μM) [pg/mL] | IL-5 ([3]; test compound 0.1 μM) | IL-5 ([3]; test compound 1 μM) | IL-5 ([3]; test compound 10 μM) [pg/mL] | IFN-γ ([4]; test compound 0.1 μM) [ng/mL] | IFN-γ ([4]; test compound 1 μM) [ng/mL] | IFN-γ ([4]; test compound 10 μM) [ng/mL] | further results |
| --- | --- | --- | --- | --- | --- | --- | --- | --- | --- | --- | --- |
| C[C@@H]1C[C@H]2[C@@H]3CCC4=CC(=O)C=C[C@]4(C)[C@@]3(F)[C@@H](O)C[C@]2(C)[C@@]1(O)C(=O)CO [Dexamethasone, reference compound] |  |  |  |  |  |  |  |  |  |  | Ratio of Infiltrating Eosinophiles [1, 6]: 10.27%; Inhibition [1, 6]: 18.9% |
| Nc1ncnc2c1nc(O)n2Cc1ccccc1 [Example 1, 9-Benzyl-8-Hydroxyadenine] | 278 to 280 |  |  |  |  |  |  |  |  |  |  |
| CCCCn1c(O)nc2c(N)ncnc21 [Example 3, 9-Butyl-8-Hydroxyadenine] | 222 to 224 |  |  |  |  |  |  |  |  |  |  |
| Nc1ncnc2c1nc(O)n2Cc1ccc(F)cc1 [Example 4, 9-(4-Fluorobenzyl)-8-Hydroxyadenine] | 270 to 272 |  |  |  |  |  |  |  |  |  |  |
| CC(C)(C)OC(=O)Oc1nc2c(N)ncnc2n1Cc1ccccc1 [Example 10, 9-Benzyl-8-tert-Butyloxycarbonyloxyadenine] | 287 to 289 |  |  |  |  |  |  |  |  |  |  |
| CC(=O)Oc1nc2c(N)ncnc2n1Cc1ccccc1 [Example 11, 9-Benzyl-8-Acetoxyadenine] | 189 to 191 |  |  |  |  |  |  |  |  |  |  |
| Nc1ncnc2c1nc(OC(=O)c1ccccc1)n2Cc1ccccc1 [Example 12, 9-Benzyl-8-Benzoyloxyadenine] | 227 to 229 |  |  |  |  |  |  |  |  |  |  |
| CCCCCCCC(=O)Oc1nc2c(N)ncnc2n1Cc1ccccc1 [Example 15, 9-Benzyl-8-Octanoyloxyadenine] | 248 to 250 |  |  |  |  |  |  |  |  |  |  |
| Cc1nc(N)c2nc(O)n(Cc3ccccc3)c2n1 [Example 17, 9-Benzyl-8-Hydroxy-2-Methyladenine] |  |  |  |  |  |  |  |  |  |  | Ratio of Infiltrating Eosinophiles [1, 7]: 4.70%; Inhibition [1, 7]: 62.9% |
| Cc1nc(N)c2nc(O)n(Cc3cccc(Cl)c3)c2n1 [Example 18, 9-(m-Chlorobenzyl)-8-Hydroxy-2-Methyladenine] |  | 254 | <7.8 | <7.8 | 4,150 pg/ml | 2,321 pg/ml | 710 | 26 | 63 | 181 |  |
| Cc1nc(N)c2nc(S)n(Cc3ccccc3)c2n1 [Example 19, 9-Benzyl-8-Mercapto-2-Methyladenine] |  | 296 | 29 | <7.8 | 4,482 pg/ml | 1,782 pg/ml | 643 | 16 | 50 | 139 |  |
| CCCCCc1nc(N)c2nc(O)n(Cc3ccccc3)c2n1 [Example 20, 9-Benzyl-8-Hydroxy-2-Pentyladenine] |  | 20 | <7.8 | <7.8 | 1,667 pg/ml | 670 pg/mL | 524 | 135 | 193 | 219 | IL-4 ([2]; test compound 0.01 μM): 208 pg/mL; IL-5 ([3]; test compound 0.01 μM): 3,792 pg/ml; IFN-γ ([4]; test compound 0.01 μM): 25 ng/mL; Ratio of Infiltrating Eosinophiles [1, 7]: 6.94%; Inhibition [1, 7]: 46.2% |
| Nc1nc(C2CCCCC2)nc2c1nc(O)n2Cc1ccccc1 [Example 21, 9-Benzyl-2-Cyclohexyl-8-Hydroxyadenine] |  | 192 | 11 | <7.8 | 4,103 pg/ml | 1,291 pg/ml | 715 | 28 | 158 | 170 |  |
| Nc1nc(Cc2ccccc2)nc2c1nc(O)n2Cc1ccccc1 [Example 24, 2,9-Dibenzyl-8-Hydroxyadenine] |  | 195 | <7.8 | <7.8 | 3,670 pg/ml | 1,130 pg/ml | 345 | 44 | 199 | 244 |  |
| CC(C)c1nc(N)c2nc(O)n(Cc3ccccc3)c2n1 [Example 45, 9-Benzyl-8-Hydroxy-2-Isopropyladenine] |  | 86 | <7.8 | <7.8 | 2,881 pg/ml | 699 pg/mL | 563 | 46 | 161 | 187 |  |
| CCCCc1nc(N)c2nc(O)n(Cc3ccc(F)cc3)c2n1 [Example 59, 2-Butyl-9-(p-Fluorobenzyl)-8-Hydroxyadenine] |  |  |  |  |  |  |  |  |  |  | inhibition ratio relative to the swelling degree in the placebo group ([5]; 0.1% macrogol ointment): 67%; inhibition ratio relative to the swelling degree in the placebo group ([5]; 1% macrogol ointment): 33% |
| CC(C)Cn1cnc2c(N)nc3ccccc3c21 [Example R-837, 4-amino-1-isobutyl-1H-imidazo[4,5-c]quinoline, reference compound] |  |  |  |  |  |  |  |  |  |  | inhibition ratio relative to the swelling degree in the placebo group ([5]; 0.1% macrogol ointment): 50%; inhibition ratio relative to the swelling degree in the placebo group ([5]; 1% macrogol ointment): 67% |

— patent US6376501B1, “Type 2 helper T cell-selective immune response suppressors” (Japan Energy Corporation, priority 2000, dated 2002)
